Laboratory results from US10023592B2, “Bromodomain inhibitors” (Celgene Quanticel Research, Inc., priority 2013, dated 2018).

The compounds below were run against BRD4(BD1) (Homo sapiens (Human), UniProt O60885) (assay: In vitro enzyme inhibition assay (BRD4 AlphaScreen)). Details: class symbols A/B/C.
Type: binding
Description: His-tagged BRD4 was cloned, expressed and purified to homogeneity. […] BRD4 binding and inhibition was assessed by monitoring the interaction of biotinylated H4-tetraacetyl peptide (AnaSpec, H4K5/8/12/16(Ac), biotin-labeled) with the target using the AlphaScreen technology (Life Technologies). […] After 20 min incubation at room temp, Alpha streptavidin donor beads and Nickel Chelate acceptor beads were added to a final concentration of 5 μg/mL.
The ability of the compounds disclosed herein to inhibit BRD4 activity was quantified and the respective IC50 value was determined.
Work on Cc1c(-c2cccc(NS(C)(=O)=O)c2)cn(C)c(=O)c1C [Example 97, N-[3-(1,4,5-trimethyl-6-oxopyridin-3-yl)phenyl]methanesulfonamide] yielded an IC50 of 500 to 5000 nM. In the case of CCS(=O)(=O)c1cccc(-c2cn(C)c(=O)c3ccncc23)c1 [Example 126, 4-(3-ethylsulfonylphenyl)-2-methyl-2,6-naphthyridin-1-one], the IC50 is reported as > 5000 nM. For Cn1cc(-c2cccc(S(=O)(=O)N3CCOCC3)c2)c2ccccc2c1=O [Example 14, 2-methyl-4-(3-morpholin-4-yl-sulfonylphenyl) isoquinolin-1-one], the IC50 was 500 to 5000 nM. COc1ccc(-c2cc(NCC3CC3)c(=O)n(C)c2)cc1NS(C)(=O)=O [Example 112, N-[5-[5-(cyclopropylmethylamino)-1-methyl-6-oxopyridin-3-yl]-2-methoxyphenyl]methanesulfonamide] showed an IC50 of 500 to 5000 nM. In the case of Cn1cc(-c2ccco2)c2ccccc2c1=O [Example 66, 4-(furan-2-yl)-2-methylisoquinolin-1-one], the IC50 is reported as > 5000 nM. Compound COc1ccc(-c2cn(C)c(=O)c3cc(F)ccc23)cc1S(N)(=O)=O [Example 64, 5-(7-fluoro-2-methyl-1-oxoisoquinolin-4-yl)-2-methoxybenzenesulfonamide] has an IC50 of 500 to 5000 nM. Cn1cc(-c2cccc(S(C)(=O)=O)c2)n2cncc2c1=O [Example 131, 7-methyl-5-(3-methylsulfonylphenyl)imidazo[1,5-a]pyrazin-8-one] was tested, and the IC50 was > 5000 nM.

Same assay, conditions: in vitro enzyme inhibition assay
For CCC1CCc2cc(NS(=O)(=O)CC)cc(-c3cc(C)c(=O)n(C)c3)c2O1 (centres unmarked) [Example 492, N-[8-(1,5-dimethyl-6-oxopyridin-3-yl)-2-ethyl-3,4-dihydro-2H-chromen-6-yl] ethanesulfonamide], the IC50 was < 500 nM. With Cc1cc(-c2cc(OCC3(C)COC3)cc(S(C)(=O)=O)c2)cn(C)c1=O [Example 329, 1,3-dimethyl-5-[3-[(3-methyloxetan-3-yl)methoxy]-5-methylsulfonylphenyl]pyridin-2-one] the IC50 was < 500 nM. In the case of Cn1cc(-c2cc(S(C)(=O)=O)ccc2OCC2CC2)c2ocnc2c1=O [Example 237, 7-[2-(cyclopropylmethoxy)-5-methylsulfonylphenyl]-5-methyl-[1,3]oxazolo[4,5-c]pyridin-4-one], the IC50 is reported as < 500 nM. In the case of Cc1cc(-c2cc(OCc3ccccn3)cc(S(C)(=O)=O)c2)cn(C)c1=O [Example 330, 1,3-dimethyl-5-[3-methylsulfonyl-5-(pyridin-2-ylmethoxy)phenyl]pyridin-2-one], the IC50 is reported as < 500 nM. In the case of CCC1CCc2cc(NS(C)(=O)=O)cc(-c3cn(C)c(=O)c4ccccc34)c2O1 (centres unmarked) [Example 490, N-[2-ethyl-8-(2-methyl-1-oxoisoquinolin-4-yl)-3,4-dihydro-2H-chromen-6-yl] methanesulfonamide], the IC50 is reported as < 500 nM. For CC(=O)Nc1cc(-c2cccc(NS(C)(=O)=O)c2)cn(C)c1=O [Example 482, N-[5-[3-(methanesulfonamido)phenyl]-1-methyl-2-oxopyridin-3-yl]acetamide], the IC50 was > 5000 nM. With CCCCc1ccc(S(C)(=O)=O)cc1-c1ccc(=O)n(C)c1 [Example 317, 5-(2-butyl-5-methylsulfonylphenyl)-1-methylpyridin-2-one] the IC50 was < 500 nM. Compound Cn1cc(-c2cc(S(C)(=O)=O)ccc2OCC2CC2)c2ncncc2c1=O [Example 231, 8-[2-(cyclopropylmethoxy)-5-methylsulfonylphenyl]-6-methylpyrido[4,3-d]pyrimidin-5-one] has an IC50 of 500 to 5000 nM. With CCC(=O)Nc1cc(-c2cccc(NS(C)(=O)=O)c2)cn(C)c1=O [Example 481, N-[5-[3-(methanesulfonamido)phenyl]-1-methyl-2-oxopyridin-3-yl]propanamide] the IC50 was > 5000 nM. CCCCc1cnc(NS(=O)(=O)CC)nc1-c1cc(OC)c(=O)n(C)c1 [Example 362, N-[5-butyl-4-(5-methoxy-1-methyl-6-oxopyridin-3-yl)pyrimidin-2-yl]ethanesulfonamide] was tested, and the IC50 was < 500 nM. Compound CCS(=O)(=O)c1ccc(Oc2ccc(F)cc2F)c(-c2cc(C(F)(F)F)c(=O)n(C)c2)c1 [Example 392, 5-[2-(2,4-difluorophenoxy)-5-ethylsulfonylphenyl]-1-methyl-3-(trifluoromethyl)pyridin-2-one] has an IC50 of 500 to 5000 nM. In the case of Cc1cc(-c2cc(S(=O)(=O)C(C)C)ccc2OCC2CC2)cn(C)c1=O [Example 394, 5-[2-(cyclopropylmethoxy)-5-propan-2-ylsulfonylphenyl]-1,3-dimethylpyridin-2-one], the IC50 is reported as < 500 nM. For Cc1cc(-c2cc(OCc3ccc(F)cc3F)cc(S(C)(=O)=O)c2)cn(C)c1=O [Example 335, 5-[3-[(2,4-difluorophenyl)methoxy]-5-methylsulfonylphenyl]-1,3-dimethylpyridin-2-one], the IC50 was < 500 nM. In the case of Cn1cc(-c2cc(S(C)(=O)=O)cc3c2OC(C2CC2)C3)c2ccccc2c1=O (centres unmarked) [Example 493, 4-(2-cyclopropyl-5-methylsulfonyl-2,3-dihydro-1-benzofuran-7-yl)-2-methylisoquinolin-1-one], the IC50 is reported as < 500 nM. Work on Cn1cc(-c2cc(S(C)(=O)=O)ccc2Oc2ccc(F)cc2F)c2ncncc2c1=O [Example 233, 8-[2-(2,4-difluorophenoxy)-5-methylsulfonylphenyl]-6-methylpyrido[4,3-d]pyrimidin-5-one] yielded an IC50 of 500 to 5000 nM. Cc1cc(-c2cc(NS(C)(=O)=O)ccc2Oc2ccc(F)cc2F)cn(C2CCC2)c1=O [Example 484, N-[3-(1-cyclobutyl-5-methyl-6-oxopyridin-3-yl)-4-(2,4-difluorophenoxy)phenyl]methanesulfonamide] was tested, and the IC50 was < 500 nM. For CCCCc1ccc(S(C)(=O)=O)cc1-c1cn(C)c(=O)c2ccccc12 [Example 318, 4-(2-butyl-5-methylsulfonylphenyl)-2-methylisoquinolin-1-one], the IC50 was < 500 nM. CCCc1cnc(NS(=O)(=O)CC)nc1-c1cn(C)c(=O)c2ccccc12 [Example 306, N-[4-(2-methyl-1-oxoisoquinolin-4-yl)-5-propylpyrimidin-2-yl] ethanesulfonamide] was tested, and the IC50 was < 500 nM. With CCC#CCOc1ccc(S(=O)(=O)CC)cc1-c1cc(OC)c(=O)n(C)c1 [Example 390, 5-(5-ethylsulfonyl-2-pent-2-ynoxyphenyl)-3-methoxy-1-methylpyridin-2-one] the IC50 was < 500 nM. In the case of CCC1CCc2cc(NS(=O)(=O)CC)cc(-c3cn(C)c(=O)c4ccccc34)c2O1 (centres unmarked) [Example 491, N-[2-ethyl-8-(2-methyl-1-oxoisoquinolin-4-yl)-3,4-dihydro-2H-chromen-6-yl]ethanesulfonamide], the IC50 is reported as < 500 nM. With Cc1cc(-c2cc(S(C)(=O)=O)ccc2NC2CCOC2)cn(C)c1=O (centres unmarked) [Example 425, 1,3-dimethyl-5-[5-methylsulfonyl-2-(oxolan-3-ylamino)phenyl]pyridin-2-one] the IC50 was < 500 nM. With CC(C)S(=O)(=O)c1ccc(OCC2CC2)c(-c2cn(C)c(=O)c3ccccc23)c1 [Example 364, 4-[2-(cyclopropylmethoxy)-5-propan-2-ylsulfonylphenyl]-2-methylisoquinolin-1-one] the IC50 was < 500 nM. CCc1ccc(S(C)(=O)=O)cc1-c1cn(C)c(=O)c2ccccc12 [Example 316, 4-(2-ethyl-5-methylsulfonylphenyl)-2-methylisoquinolin-1-one] was tested, and the IC50 was < 500 nM. Compound Cc1cc(-c2nc(NS(C)(=O)=O)ncc2Oc2ccc(F)cc2F)cn(CC2CCC2)c1=O [Example 298, N-[4-[1-(cyclobutylmethyl)-5-methyl-6-oxopyridin-3-yl]-5-(2,4-difluorophenoxy)pyrimidin-2-yl]methanesulfonamide] has an IC50 of 500 to 5000 nM. With CCS(=O)(=O)Nc1cc(-c2ccc(=O)n(C)c2)c(-c2ccccc2)s1 [Example 424, N-[4-(1-methyl-6-oxopyridin-3-yl)-5-phenylthiophen-2-yl]ethanesulfonamide] the IC50 was > 5000 nM. For CCCCc1cnc(S(C)(=O)=O)nc1-c1cc(C)c(=O)n(C(C)C)c1 [Example 508, 5-(5-butyl-2-methylsulfonylpyrimidin-4-yl)-3-methyl-1-propan-2-ylpyridin-2-one], the IC50 was < 500 nM. With CCCCc1cnc(NS(C)(=O)=O)nc1-c1cc(C)c(=O)n(C)c1 [Example 363, N-[5-butyl-4-(1,5-dimethyl-6-oxopyridin-3-yl)pyrimidin-2-yl]methanesulfonamide] the IC50 was < 500 nM. In the case of CCS(=O)(=O)Nc1cccc(-c2nn(C)c(=O)cc2C)c1 [Example 479, N-[3-(1,4-dimethyl-6-oxopyridazin-3-yl)phenyl]ethanesulfonamide], the IC50 is reported as > 5000 nM. For CCCCc1cnc(S(C)(=O)=O)nc1-c1cn(C)c(=O)c2ccccc12 [Example 304, 4-(5-butyl-2-methylsulfonyl-pyrimidin-4-yl)-2-methylisoquinolin-1-one], the IC50 was < 500 nM. With Cc1cc(-c2cc(OCC(F)(F)F)cc(S(C)(=O)=O)c2)cn(C)c1=O [Example 328, 1,3-dimethyl-5-[3-methylsulfonyl-5-(2,2,2-trifluoroethoxy)phenyl]pyridin-2-one] the IC50 was < 500 nM. With CCS(=O)(=O)c1ccc(OCC2CC2)c(-c2cn(C)c(=O)c3cncnc23)c1 [Example 232, 8-[2-(cyclopropylmethoxy)-5-ethylsulfonylphenyl]-6-methylpyrido[4,3-d]pyrimidin-5-one] the IC50 was < 500 nM. In the case of Cn1cc(-c2cc(OCC3CC3)cc(S(C)(=O)=O)c2)c2ccoc2c1=O [Example 350, 4-[3-(cyclopropylmethoxy)-5-methylsulfonylphenyl]-6-methylfuro[2,3-c]pyridine-7-one], the IC50 is reported as < 500 nM. With [2H]C([2H])([2H])n1cc(-c2cc(NS(=O)(=O)CC)ccc2Oc2ccc(F)cc2F)ccc1=O [Example 141, N-{4-(2,4-difluorophenoxy)-3-[1-(^2H3)methyl-6-oxopyridin-3-yl]phenyl}ethanesulfonamide] the IC50 was < 500 nM. With CCS(=O)(=O)Nc1ncc(Oc2ccc(F)cc2F)c(-c2cc(C)c(=O)n(CC3CCC3)c2)n1 [Example 299, N-[4-[1-(cyclobutylmethyl)-5-methyl-6-oxopyridin-3-yl]-5-(2,4-difluorophenoxy)pyrimidin-2-yl]ethanesulfonamide] the IC50 was 500 to 5000 nM.
